Marks after values point to notes of the source that are not given here.
System: prostate
Assay: Prostate-reducing activity: prostate weight of male rats after 14-15 days of once-daily oral treatment with an EGF-R-TK inhibitor
Assay type: in vivo
Method: The active substance is administered once a day as a suspension through an oesophageal tube. After the test period has ended the animals are killed, their prostates are removed and weighed.

[1] = 10 mg/kg once a day by oesophageal tube, length of treatment 15 days
[2] = 30 mg/kg once a day by oesophageal tube, length of treatment 15 days
[3] = 100 mg/kg once a day by oesophageal tube, length of treatment 15 days
[4] = 10 mg/kg once a day by oesophageal tube, length of treatment 14 days
[5] = 30 mg/kg once a day by oesophageal tube, length of treatment 14 days
[6] = 100 mg/kg once a day by oesophageal tube, length of treatment 14 days

| SMILES | average absolute weight (prostate) [1] | average relative weight [% of body weight] (prostate) [1] | average relative weight [% of the brain] (prostate) [1] | average absolute weight (prostate) [2] | average relative weight [% of body weight] (prostate) [2] | average relative weight [% of the brain] (prostate) [2] | average absolute weight (prostate) [3] | average relative weight [% of body weight] (prostate) [3] | average relative weight [% of the brain] (prostate) [3] | average absolute weight (prostate) [4] | average relative weight [% of body weight] (prostate) [4] | average relative weight [% of the brain] (prostate) [4] | average absolute weight (prostate) [5] | average relative weight [% of body weight] (prostate) [5] | average relative weight [% of the brain] (prostate) [5] | average absolute weight (prostate) [6] | average relative weight [% of body weight] (prostate) [6] | average relative weight [% of the brain] (prostate) [6] |
| --- | --- | --- | --- | --- | --- | --- | --- | --- | --- | --- | --- | --- | --- | --- | --- | --- | --- | --- |
| CN(C)CC=CC(=O)Nc1cc2c(Nc3ccc(F)c(Cl)c3)ncnc2cc1OC[C@@H]1CCCO1 [compound c, 4-[(3-chloro-4-fluorophenyl)amino]-6-{[4-(N,N-dimethylamino)-1-oxo-2-buten-1-yl]amino}-7-[(S)-(tetrahydrofuran-2-yl)methoxy]-quinazoline] | 0.3854* g | 0.1681 % of body weight | 19.67* % of the brain | 0.2242* g | 0.1117* % of body weight | 11.50* % of the brain | 0.1463* g | 0.0892* % of body weight | 7.63* % of the brain | – | – | – | – | – | – | – | – | – |
| CN(CC=CC(=O)Nc1cc2c(Nc3ccc(F)c(Cl)c3)ncnc2cc1OC1CCCC1)C1CC1 [compound b, 4-[(3-chloro-4-fluorophenyl)amino]-6-{[4-(N-cyclopropyl-N-methyl-amino)-1-oxo-2-buten-1-yl]amino}-7-cyclopentyloxy-quinazoline] | – | – | – | – | – | – | – | – | – | 0.3983* g | 0.1622* % of body weight | 20.23* % of the brain | 0.3989 g | 0.1697 % of body weight | 20.71* % of the brain | 0.1848* g | 0.1191* % of body weight | 10.13* % of the brain |
